# Non-standard residues stand in square brackets, D forms with d. Residues, ends and D or L forms follow the SMILES beside them. dOrn = NCCC[C@@H](N)C(=O)O
# Assays:
# [1] = system: Colistin-resistant bacteria; experiment: CLSI microbroth dilution antibacterial assay, colistin-resistant strains; type: cell-based, E. coli
# Source text: (§1) Bacterial Strains. All strains used in this study except the Bacillus strain and the colistin resistant E. coli strains were obtained from Professor Paul Hergenrother (UIUC). The Bacillus strain was obtained from Professor William Metcalf (UIUC). The colistin resistant E. coli strains (AR Bank Number 0346, 0349, and 0350) were obtained from the CDC AR Isolate bank). E. coli ATCC 25922 (wild type, WT) BAA-2469 (resistant, R), colistin resistant E. coli, K pneumonia ATCC 27736 (WT) and BAA-2146 (R), A. baumannii ATCC 19606 (WT) and KB349 (R), and P. aeruginosa PAO1 (WT) and PA1000 (R) were grown on Mueller Hinton Broth 2 (Sigma Aldrich). S. aureus ATCC 29213 (WT) and NRS3 (R), Enterococcus species ATCC 19433 (WT) and 5235 (R), and B. subtilis 6633 (WT) were maintained on Bacto Brain Heart Infusion.
# Antibacterial activity analysis. Antibacterial activity analysis for all bacteria was performed using the microdilution broth method as outlined by the Clinical and Laboratory Standards Institute (CLSI).9 Mueller Hinton Broth 2 (MH, Sigma-Aldrich, 90922) was used for all testing. Testing was performed as previously described.10 Turbidity (OD600) of the wells was determined using a SpectraMax iD3 platereader (Molecular Devices). For the compounds that hit during initial screens, minimum inhibitory concentrations were determined. A minimum of three biological replicates were performed. […]
# ESKAPE pathogens = experiment: CLSI microbroth dilution antibacterial assay; type: cell-based
# Method: Bioactivity testing. Initial compounds were tested for activity against antibiotic sensitive and antibiotic resistant ESKAPE pathogens at concentrations varying between 0.5 and 32 μg/mL using the CLSI microbroth dilution assay.^47 Any well with greater than 90% death was considered a hit.
# as §1
# Antibacterial activity analysis. […] Testing was performed as previously described.10 Turbidity (OD600) of the wells was determined using a SpectraMax iD3 platereader (Molecular Devices). For the compounds that hit during initial screens, minimum inhibitory concentrations were determined. […]
# [2] = system: A549 non-small cell lung cancer cell line; experiment: Alamar blue viability assay; type: cell-based, human; details: 16 ug/mL, 48 hours
# Method: Anticancer Testing. A549 non-small cell lung cancer cells (ATCC CCL-185) were obtained directly from ATCC and used within 30 passages. A549 cells were maintained in RPMI 1640 medium supplemented with 10% fetal bovine serum, 100 U/mL penicillin, and 100 ug/mL streptomycin. For anticancer testing, cells were seeded at 2000 cells per well in 96 well plates and allowed to adhere overnight. Cells were then treated with compound at 16 ug/mL (1% DMSO final) or vehicle control for 48 hours. Viability was assessed using Alamar Blue. Specifically, resazurin (Sigma Aldrich, R7017) was dissolved at 440 μM in sterile PBS. 20 μL was then added to each well and incubated for 4-8 h at 37° C. Fluorescence was measured using a SpectraMax iD3 platereader (Excitation: 550 nm, Emission 590 nm). Percent death was calculated by subtracting the background from all wells and setting 0% death to vehicle treated controls.
smiles,measurement,setting,value
CC(C)[C@@H]1NC(=O)[C@@H](CCCNC(=N)N)NC(=O)[C@H]([C@@H](C)O)NC(=O)[C@@H](CCCN)NC(=O)[C@H](Cc2ccccc2)NC(=O)[C@@H](Cc2ccccc2)NC1=O [pNP-43] (cyclo(F[dOrn]T[dR]V[dF])),susceptibility of colistin-resistant bacteria,[1],resistant
same,antibacterial activity (in words),ESKAPE pathogens,activity against several Gram-negative bacteria
same,toxicity to A549 cells,[2],no observed hemolytic activity or mammalian cell toxicity
